Patent US11160788B2, “Caspase-1 inhibition and uses thereof for prevention and treatment of neurological conditions” (priority 2016, dated 2021)
“Also recorded” adds a separate entry of the source.

Key:
recombinant human Casp1 = molecular target: T1, recombinant human Casp1 (Homo sapiens, UniProt P29466); experiment: Caspase inhibition IC50, recombinant human Casp1; type: biochemical; conditions: read-out: IC50 against human Casp1
T1 sequence (P29466 120-297 limits assumed): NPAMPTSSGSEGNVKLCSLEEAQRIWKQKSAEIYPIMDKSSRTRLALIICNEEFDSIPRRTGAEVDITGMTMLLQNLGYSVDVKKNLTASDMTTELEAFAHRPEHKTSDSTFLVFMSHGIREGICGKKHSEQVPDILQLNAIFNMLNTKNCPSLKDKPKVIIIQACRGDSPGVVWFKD
T1 sequence (P29466 317-404 limits assumed): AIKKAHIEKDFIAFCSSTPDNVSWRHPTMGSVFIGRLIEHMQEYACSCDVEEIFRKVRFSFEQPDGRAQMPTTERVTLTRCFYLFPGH
Description: (§1) FIG. 14: Selectivity and blood brain permeability of VX-765 and VRT-043198. (a-b) IC50 of VX-765 (a) and VRT-043198 (b) against human Casp1-10. (c-d) IC50 of VX-765 (c) and VRT-043198 (d) against mouse Casp1 and Casp11. (e) Blood brain barrier permeability and presence of VX-765 and VRT-043198 in 3 wild type and 4 J20 mice brain cortex and hippocampus and in plasma. Ratios of brain levels to plasma levels are calculated.

human Casp2 to 10 = experiment: Selectivity against human Casp2 to 10; type: biochemical; conditions: recombinant caspases
Description: as §1

J20 mice [1] = experiment: Open field hyperactivity, treatment of symptomatic J20 mice; type: in vivo, mouse; conditions: for hyperactivity in open field: Treatment 2; for hyperactivity, distance travelled in open field: 50 mg/kg IP
Source text: FIG. 8: VX-765 treatment restores cognitive function in J20 mice. (a) Experimental paradigm. Intraperitoneal vehicle-injected wild type (WT+Vehicle; n=13) and J20 mice (J20+Vehicle: n=9), and VX-765-injected J20 mice (J20+VX-765: n=9) mice were behaviourally assessed at 5 different time-points: baseline before treatment (baseline untreated J20 were grouped together; n=18), after 3 IP injections/wk of VX-765 or vehicle (Treatment 1), after 6 additional injections over 2 weeks (Treatment 2), after 4-week Washout period, and after an additional 3 injections in one week (Treatment 3). Mice were sacrificed at 8 months of age after Treatment 3 (b) NOR Discrimination index (Treatment main effect, F(2,20)=85.8, p<0.0001; Time main effect, F(4,80)=4.188, p=0.0039; Treatment×Time interaction, F(8,80)=[…], two-way repeated-measures ANOVA, Dunnett's post-hoc compared to J20+Vehicle). (c) Distance traveled during Open Field task. Data analyzed by repeated measures two-way ANOVA (Treatment main effect, F(2,19)=11.47, p=0.0005; Treatment×Time interaction, F(8,76)=5.69, p<0.0001, two-way repeated-measures ANOVA, Dunnett's post-hoc compared to J20+Vehicle). (d-i) Barnes maze analysis. Learning acquisition (d,g), probe test primary latency and errors (e,h), and target hole preference (f,i); # of pokes of each hole labelled +1 to +9 to the right or −1 to −9 to the left of the target hole during the probe) after Treatment 2 (d-f) and Washout (g-i). Probe tests were analyzed (Treatment 2 primary latency, F(2,52)=5.879, p=0.0050; Treatment 2 primary errors, F(2,52)=9.998, p=0.0002; Washout primary latency, F(2,22)=4.076, p=0.0312; Washout primary errors, F(2,22)=10.84, p=0.0005, ANOVA, Tukey's post-hoc). * p<0.05, ***p<0.001, ****p<0.0001.
Anxiety and hyperactivity are monitored in an open-field paradigm, episodic memory with the NOR, spatial memory with the Barnes maze, and short or long term working memory with the Y maze before and after treatments. Repeated measures are acceptable for the NOR, Barnes and Y maze^2-4. […]

J20 mice [2] = experiment: APP, Casp1, Casp6, IDE and neprilysin expression, treated symptomatic J20 mice; type: in vivo, mouse; conditions: RT-PCR, J20 brains, preliminary
Source text: FIG. 5: Western blot against the C-terminus (C11) and Aβ (6E10) regions of APP in TREATMENT mice groups before washout.
FIG. 11: VX-765 prevents the progression of Aβ in J20 mice. (a) Aβ immunohistographs of the stratum lacunosum molecular layer of the hippocampus and S1 cortex of pre-treated 5-month old J20 (baseline) and 8-month old vehicle- or VX-765-treated WT or J20 mice with anti-F2576 antiserum (Scale bar=50 μm). (b) Quantitative analysis comparing Aβ immunostaining density between J20+Vehicle (n=5) and J20+VX-765 (n=4) mice in the hippocampus from the pyramidal cell layer to the stratum lacunosum molecular layer (p=0.0029) and cortex (p=0.0314, unpaired t test). (c) Quantitative analysis comparing RIPA-soluble Aβ42 over total Aβ (Aβ38+Aβ40+Aβ42) levels in pre-treated 5-month old J20, 8-month old vehicle- or VX-765 treated J20 mice hippocampus (F(2,9)=6.614, p=0.0171, ANOVA, Tukey's post-hoc, * p<0.05). No ELISA signal was obtained from WT mice brains. (d) RIPA-soluble total Aβ measured by ELISA in pg/mg brain tissue. (e,f) Formic acid soluble Aβ42 over total Aβ (Aβ38+Aβ40+Aβ42) (e) and total Aβ (f) levels measured by ELISA in pg/mg brain tissue. Student t-test used to assess difference between J20+vehicle and J20+VX-765. (g,h,i) RIPA-soluble and (j,k,l) formic acid soluble Aβ38, Aβ40, and Aβ42 measured by ELISA in pg/mg brain tissue. […]

J20 mice [3] = experiment: Amyloid immunostaining and ELISA, preventive treatment of J20 mice; type: in vivo, mouse
Source text: FIG. 24: Immunostaining of mice brains at 8 months of age (20 week washout) with anti-amyloid beta peptide 1-40 antiserum (a). […] (b) Quantitation of the immunopositive density of amyloid staining at 4, 8, 12, 16, and 20 weeks washout of VX-765 when mice are 4, 5, 6, 7, and 8 months respectively. (c) ELISA analyses of RIPA-soluble and formic-acid soluble hippocampal and cortical tissue protein extracts.
We directly tested whether pre-symptomatic inhibition of inflammation in a mouse genetic model of Alzheimer disease can stem the progression of memory and behavioral deficits, and Alzheimer disease-like pathology. The J20 amyloid precursor protein Swedish/Indiana mutant mouse was treated at 2 months of age for a one month period with 50 mg/Kg Caspase-1 inhibitor VX-765 (FIG. 22a).

Q: How did the IC50 (recombinant human Casp1) turn out when `CCO[C@@H]1OC(=O)C[C@@H]1NC(=O)[C@@H]1CCCN1C(=O)[C@@H](NC(=O)c1ccc(N)c(Cl)c1)C(C)(C)C` [VX-765, (S)-1-((S)-2-{[1-(4-amino-3-chloro-phenyl)-methanoyl]-amino}-3,3-dimethyl-butanoyl)-pyrrolidine-2-carboxylic acid ((2R,3S)-2-ethoxy-5-oxo-tetrahydro-furan-3-yl)-amide] was run?
A: The IC50 was 3.68 nM.

Q: And the “inhibition of human Casp1 relative to human Casp2 to 10” value (human Casp2 to 10)?
A: Its value is “potently and specifically inhibited”.

Q: And the “hyperactivity in open field” value (J20 mice [1]; 10 mg/kg)?
A: The value was “non-significant improvement at T2 with 25, but not 10”.

Q: And the “hyperactivity in open field” value (J20 mice [1]; 25 mg/kg)?
A: The value was “non-significant improvement”.

Q: What about the “hyperactivity, distance travelled in open field” value (J20 mice [1]; Treatment 2 (3 weeks of treatment)) of the same molecule?
A: Its value is “attenuated only after 3 weeks of treatment; also recorded: attenuated by VX-765 only after T2”.

Q: And the “hyperactivity, distance travelled in open field” value (J20 mice [1]; Treatment 3)?
A: The value was “significantly reduced after T3”.

Q: And the “hyperactivity, distance travelled in open field” value (J20 mice [1]; after washout)?
A: The value was “reappeared after WO”.

Q: What about the “Casp1 and Casp6 mRNA” value (J20 mice [2]) of the same molecule?
A: The value was “reduction”.

Q: And the “RIPA-soluble Aβ38, Aβ40, Aβ42, total Aβ, Aβ42/total Aβ” value (J20 mice [3]; ELISA, hippocampal tissue)?
A: Its value is “do not detect major differences”.

Q: And the “formic acid soluble Aβ measures” value (J20 mice [3]; cortical)?
A: Its value is “not reduced”.

Q: And the “amyloid levels in RIPA-soluble protein extracts” value (J20 mice [3]; cortical tissue)?
A: The value was “no effect”.

Q: And the “immunopositive density of amyloid staining” value (J20 mice [3]; hippocampi and cortex, 16 and 20 week washout)?
A: The value was “slightly less amyloid”.

Q: And the “formic acid soluble Aβ42/total Aβ” value (J20 mice [3]; hippocampi, 20 week washout)?
A: The value was “lower”.

Q: What about the “RIPA-soluble Aβ42/total Aβ” value (J20 mice [3]; hippocampus, 20 week washout) of the same molecule?
A: The value was “slightly decreased”.
